Patent US20150051210A1, “Tyrosine Kinase Inhibitor Combinations and their Use” (Novartis AG, priority 2012, published 2015)

How the values were obtained:
Format in all cases: cell-based
MKN-45 cells = assay: MKN-45 Dual Inhibition: reversal of rescue with selective inhibitors, CellTiter-Glo cell viability; conditions: for activity on cell viability (reversal of rescue): MET-dependent MKN-45, rhFGF7 or rhNRG-1 250 ng/ml, 96 h, Cpd. A/Cpd. B 100 nM, BGJ398 500 nM, Lapatinib 1.5 μM, FIG. 3, FIG. 4
Experimental: MKN-45 Secretome screen: MKN-45 cells were plated in white, tissue-culture treated 384-well plates (Greiner) at 3000 cells/20 μl DMEM +10% FBS/well and allowed to attach overnight. Supernatant from library-transfected HEK293T/17 cells was then transferred to the MKN-45 cells at 30 μl/well using a Biomek FX liquid handler (Beckman Coulter) with pipetting speeds reduced to minimize disturbance of the HEK293T/17 monolayer. As positive controls, the purified proteins rhEGF and rhNRG1-31 (R&D Systems) were added to isolated wells on each plate for a final concentration of 150 ng/ml; supernatant from mock-transfected HEK293T/17 wells were transferred as neutral controls. Following addition of supernatants and purified protein controls, Cpd. A diluted in DMEM was added at 10 μl/well for a final assay concentration of 100 nM. After 96 hours incubation, growth was measured using the CellTiter-Glo luminescent cell viability assay system (Promega). In brief, 30 μl CellTiter-Glo reagent was added to all wells, then incubated for 15 minutes at room temperature before reading luminescence on a Viewlux plate reader (Perkin Elmer). (FIG. 1)
MKN-45 Dual Inhibition: MKN-45 cells were seeded at 3000 cells/20 μl/well in 384-well plates and incubated overnight. Solutions of rhFGF7 and rhNRG-1 were prepared in DMEM+10%FBS, then added at 30 μl/well to achieve a final concentration of 250 ng/ml (one purified protein per treatment). The following single and dual inhibition treatments were prepared in DMEM and added at […]: Cpd. A, Cpd. B, BGJ398, Lapatinib, Cpd. A and BGJ398, Cpd. B and BGJ398, Cpd. A and Lapatinib, Cpd. B and Lapatinib. Final concentrations for each compound, whether single or combined, were as follows: 100 nM for Cpd. A and Cpd. B, 500 nM for BGJ398 and 1.5 μM for Lapatinib. After 96 hours cell viability was measured by CellTiter-Glo as previously described. (FIG. 3, FIG. 4)

[1] = test system: phosphorylation of MET, FRS2, ERK, AKT in RT-112; assay: Western blots of protein phosphorylation in RT-112 cells
Experimental: (§1) Western Blots (Figures not Shown) MKN-45 and RT-112 cells were treated in 6-well plates for 2 hours and 18 hours in the presence or absence of purified protein (rhFGF7, rhNRG1-31, or rhHGF), and/or inhibitor (Cpd. B, Cpd. A, BGJ398). Following wash with ice-cold PBS, cells were lysed with RIPA buffer (Thermo) containing phosphatase (Thermo) and proteinase (Roche) inhibitor cocktails. Total protein was quantified by bicinchoninic protein assay (Pierce). Aliquots of 20 μg were resolved by electrophoresis on NuPAGE SDS-PAGE 4-12% BIS-Tris gels before transfer to nitrocellulose membranes. Membranes were blocked for one hour at room temperature before overnight incubation at 4° C. with the following primary antibodies (source rabbit, 1:1000 final dilution): anti-phospho-Akt (Ser473), anti-phospho-MET (Tyr1234/1235), anti-phospho-MAPK/ERK(1/2) (Thr202/Tyr204), anti-AKT, anti-MAPK/Erk(1/2), and anti-α/β-Tubulin . Anti-MET was probed at 1:800 final dilution An internal antibody was used for phospho-FRS2(Y346) (1:1500 dilution). Membranes were then washed 3 times in PBS+0.1% Tween before addition of secondary antibody, IRDye 680LT goat anti-rabbit IgG , dilution 1:15000. After one hour at room temperature, membranes were washed and bands were visualized using an Odyssey Infrared Imager.

[2] = test system: phosphorylation of MET, ERK1/2, AKT, FRS2 in MKN-45; assay: Western blots of protein phosphorylation in MKN-45 cells
Experimental: as §1

RT-112 cells = assay: RT-112 Dual Inhibition: reversal of rescue with selective inhibitors, CellTiter-Glo cell viability; conditions: RT-112, rhHGF or rhNRG-1 250 ng/ml, 96 h; BGJ398 100 nM, Cpd. A/Cpd. B 500 nM, Lapatinib 1.5 μM; FIG. 5, FIG. 6
Experimental: RT-112 Secretome screen: The basic format was identical to the MKN-45 secretome screen with slight modifications. RT-112 cells were plated in EMEM+10% in white, tissue-culture treated 384-well plates at 1000 cells/20 μl/well and allowed to attach overnight. Supernatant from library-transfected HEK293T/17 cells was transferred as described above for the MKN-45 secretome screen. Purified proteins rhNRG1-31 and rhTGFα were added as positive controls, at a final concentration of 150 ng/ml. Following addition of supernatants and purified protein controls, BGJ398 diluted in DMEM was added at 10 μl/well for a final assay concentration of 100 nM. Cell viability was measured after 72 hours using CellTiter-Glo as described above. (FIG. 2)
RT-112 Dual Inhibition: The format for the RT-112 dual inhibition experiment was similar to that described for MKN-45 with the following modifications. RT-112 cells were plated at 1000 cells/20 μl/well. Solutions of rhHGF and rhNRG-1 were added to achieve a final concentration of 250 ng/ml. Single and dual inhibition conditions were prepared as follows: BGJ398, Cpd. A, Cpd. B, Lapatinib, BGJ398 and Cpd. A, BGJ398 and Cpd. B, BGJ398 and Lapatinib. Final concentrations for each compound, whether single or combined, were as follows: 100nM for BGJ398, 500 nM for Cpd. A and Cpd. B, and 1.5 μM for Lapatinib. After 96 hours cell viability was measured by CellTiter-Glo as previously described. (FIG. 5, FIG. 6).

| SMILES | activity on cell viability (reversal of rescue) (MKN-45 cells) | reversal of ligand-mediated rescue of proliferation (MKN-45 cells; MKN-45 in presence of MET inhibitor Cpd. A or Cpd. B, FIGS. 3, 4) | FRS2 and ERK phosphorylation ([1]; RT-112, absence of ligands) | reversal of FGF7 rescue effect on FRS2 and ERK1/2 phosphorylation ([2]; MKN-45, MET inhibitor plus FGF7) | activity on cell viability (reversal of rescue) (RT-112 cells) | prevention of HGF rescue of ERK phosphorylation ([1]; RT-112, BGJ398 plus HGF, simultaneous addition) | MET phosphorylation ([1]; RT-112, absence of ligands) | effect on phosphorylation of several proteins (MET, ERK1/2, AKT, FRS2) ([2]; MKN-45, absence of added ligands) |
| --- | --- | --- | --- | --- | --- | --- | --- | --- |
| CCN1CCN(c2ccc(Nc3cc(N(C)C(=O)Nc4c(Cl)c(OC)cc(OC)c4Cl)ncn3)cc2)CC1 [BGJ398, 3-(2,6-dichloro-3,5-dimethoxy-phenyl)-1-{6-[4-(4-ethylpiperazin-1-yl)-phenylamino]-pyrimidin-4-yl}-1-methyl-urea] | not sufficient | selectively reverse rescue mediated by FGF7 | reduced both FRS2 and ERK phosphorylation | reversed | active |  |  |  |
| CNC(=O)c1ccc(-c2cnc3ncc(Cc4ccc5ncccc5c4)n3n2)cc1F [Cpd. B, 2-fluoro-N-methyl-4-[(7-quinolin-6-yl-methyl)-imidazo[1,2-b]triazin-2-yl]benzamide] | active |  |  |  | not sufficient | prevented this rescue effect | specifically inhibited MET phosphorylation | profound effect |
